Patent US10087226B2, “Chimeric peptide that interacts with cell membrane gangliosides” (Universite D'Aix-Marseille, priority 2014, dated 2018)
Ends that are not written are not given here.

Assays:
[1] = test system: bEnd-3 cells co-cultured with astrocytic CTX-TNA2 cells
Protocol: (§1) These cells are plated at various densities ranging from 10.000 to 50.000 cells per well in two-compartment cell chambers (Greiner Bio-one). The lower compartment of the chamber is a well that is part of 12-well culture plate. The upper chamber is equipped with a permeable filter (mean pore diameter of 0.4 μm) onto which the cells are seeded. The cells are cultured in DMEM/F12 10% fetal calf serum.
(§2) At confluency, the cells formed a uniform monolayer with a transendothelial resistance of 150-200 Ω·cm^2 (measured with the EVOM apparatus, WPI). The transendothelial resistance reflects the presence of tight junctions overall the culture. These tight junctions efficiently prevent the paracellular passage of molecules. It is considered that the endothelium is tight when this value is >100 Ω·cm^2. Therefore, all experiments are performed with functional endothelial barriers. […]
(§3) The passage of the peptide through the endothelial barrier is thus followed in real-time. The concentration of the chimeric peptide is determined by spectrophotometry. […]

[2] = test system: SH-SY5Y cells; test: Calcium measurements, amyloid pore formation induced by Aβ1-42; assay type: cell-based, human
Protocol: A. In a first experiment, SH-SY5Y cells were treated with Aβ1-42peptide (220 nM), and Ca^2+ dependent fluorescence was analyzed (top curve). In a second series of experiments, Aβ1-42 and the chimeric α-syn34-45/HH peptide (both 220 nM) were mixed extemporaneously directly injected onto the cells (C1 and C2 curves corresponding to two separate experiments). The C3 curve corresponds to the calcium response induced by the chimeric peptide alone. Results are expressed as mean±SD (n=100). In panel B, the same colors were used but the chimeric peptide was replaced by the wild-type α-syn34-45 peptide.
A. SH-SY5Y cells were treated with Aβ1-42 peptide (220 nM), and Ca^2+ dependent fluorescence was analyze. […] In absence of the chimeric peptide (− Pep Chim), amyloid pore formation induced by the Aβ1-42 peptide was evidenced by an increase of Ca^2+ fluorescence inside the cells. […] Warmer colors correspond to higher fluorescence (left scale).
Cells were plated in 35 mm culture dishes, grown during 72 h and loaded with 5 μM Fluo-4 AM (Invitrogen-Life Technologies, Saint Aubin, France) for 30 min in the dark, washed three times with HBSS (Gibco-Life Technologies, Saint-Aubin, France), and incubated for 20 min at 37° C. […] Fluorescence emission at 525 nm was imaged by a digital camera CDD (ORCA-ER Hamanatsu, Japan) after fluorescence excitation at 490 nm. […]

[3] = test system: bEnd-3 cells co-cultured with glial C6 cells
Protocol: as §1, §2, §3

[4] = Lipid monolayer assay, GD1a monolayer; assay type: binding; details: peptide 10 μM in aqueous subphase
[5] = Lipid monolayer assay (Langmuir film balance), GM1 monolayer; assay type: binding; details: for interaction with GM1 monolayer (surface pressure increase): peptide 10 μM in subphase
Protocol: Peptide-cholesterol interactions were studied with the Langmuir film balance technique using a Kibron microtensiometer as previously described (Fantini and Yahi, 2011a).
In this experiment, a monolayer of ganglioside GM1 was prepared at the air-water interface and the peptide was injected in the aqueous subphase. The interaction of the peptide with the ganglioside was evidenced by an increase in the surface pressure of the monolayer, which was followed in real-time with a platinum probe (see Thakur et al, 2009 for a full description of the technique and its application to amyloid proteins). […] Then single mutants were assayed to identify which of the two His is actually critical for GM1 recognition. […] In this model, His-13 interacted with one GM1, and His-14 with the second one. Clearly, the cooperation between both GM1 molecules allowed an optimal interaction with the Aβ5-16 peptide driven by histidine residues. Conversely, because it is devoid of these histidine residues, the glycolipid-binding domain of α-synuclein (α-syn34-45) has a marked preference for ganglioside GM3 instead of GM1.

[6] = Lipid monolayer assay, GD3 monolayer; assay type: binding; details: peptide 10 μM in aqueous subphase
[7] = Lipid monolayer assay, GM3 monolayer; assay type: binding
[8] = Lipid monolayer assay, GM4 monolayer; assay type: binding; details: peptide 10 μM in aqueous subphase
[9] = Lipid monolayer assay, GT1b monolayer; assay type: binding; details: peptide 10 μM in aqueous subphase
[10] = ganglioside monolayer, peptide 10 μM in aqueous subphase
[11] = initial surface pressure 17.5 mN·m^−1

Sequence: KEGVLYVGHHTK [α-syn34-45/HH, KEGVLYVGHHTK]
- transendothelial resistance after 24 hours of incubation with peptide [1]: 153 Ω·cm^2
- effect of peptide alone on Ca^2+ fluxes (intrinsic neurotoxicity) ([2]; peptide alone, SH-SY5Y cells): little effect on Ca^2+ fluxes
- transendothelial resistance after 24 hours of incubation with peptide [3]: 152 Ω·cm^2

Sequence: KEGVLYVGSKTK (listed as Homo sapiens) [α-syn34-45]
- Ganglioside specificity: critical pressure of insertion, GD1a [4]: + ((+) means a critical pressure of insertion <25 mN · m^−1)
- effect on elevation of intracellular Ca^2+ levels induced by Aβ1-42 ([2]; Aβ1-42 220 nM, peptide 220 nM (equimolar), Fluo-4 AM fluorescence): only very little inhibitory activity
- Ganglioside specificity: critical pressure of insertion, GM1 [5, 10]: + ((+) means a critical pressure of insertion <25 mN · m^−1)
- critical pressure of insertion (πc), GM1 monolayers ([5]; monolayers at various initial surface pressures, x-axis intercept (FIG. 2D, 4C)): 25 mN·m^−1
- Ganglioside specificity: critical pressure of insertion, GD3 [6]: + ((+) means a critical pressure of insertion <25 mN · m^−1)
- Ganglioside specificity: critical pressure of insertion, GM3 [7, 10]: +++ ((+++) a critical pressure of insertion >25 mN · m^−1)
- critical pressure of insertion (πc), GM3 monolayers ([7]; monolayers at various initial surface pressures, x-axis intercept (FIG. 2B)): 37.5 mN·m^−1
- Ganglioside specificity: critical pressure of insertion, GM4 [8]: + ((+) means a critical pressure of insertion <25 mN · m^−1)
- Ganglioside specificity: critical pressure of insertion, GT1b [9]: + ((+) means a critical pressure of insertion <25 mN · m^−1)

Sequence: KEHHGVLYVGTK [reversed chimeric peptide]
- interaction with GM1 monolayer (surface pressure increase) [5, 11]: recognizes both GM1 and GM3 gangliosides
- interaction with GM3 monolayer (surface pressure increase, kinetics) ([7]; peptide in subphase, initial surface pressure 17.5 mN·m^−1): recognizes both GM1 and GM3 gangliosides

Sequence: RHDSGYEVHHQK (listed as Homo sapiens) [Aβ5-16]
- interaction with GM1 monolayer (surface pressure increase) [5, 11]: surface pressure started to increase immediately after the injection
- time to maximum surface pressure, GM1 monolayer ([5]; peptide 10 μM, initial surface pressure 17.5 mN·m^−1): 30 min
